Measured values published in US12697331B2, “Methods of use of T-type calcium channel modulators” (PRAXIS PRECISION MEDICINES, INC., priority 2020, dated 2026).

Key:
[1] = Phase 1 single and multiple ascending doses of formulation 3: safety and tolerability; assay type: in vivo, human; conditions: single 60 mg, 6 healthy volunteers, no titration
Method: This was a 2-part, Phase 1 double blind, placebo controlled trial to assess the safety, tolerability, pharmacokinetics, and pharmacodynamics (including the KSS, the KDT, the SQSQ and 24-hour EEG recordings), of single, ascending (Part A: 20, 40, and 60 mg) and multiple, ascending (Part B: 20 and 40 mg for 8 days) doses of the 20 mg tablet (formulation 3) in healthy participants. […] Variability in Cmax and AUC increased with increasing dose following a single oral dose of the 20 mg tablet formulation (formulation 3) (FIG. 16).
Adverse events for the doses of 20 and 40 mg were transient and occurred at a rate similar to placebo. The following TEAEs were observed, all of which were mild to moderate: […]

[2] = Within-participant escalating dose trial Part A (5, 10, 20 mg): plasma pharmacokinetics; assay type: in vivo, human
Method: (§1) In Part A, an open label trial was conducted.

[3] = Within-participant escalating dose trial Part A: safety and tolerability (TEAEs); assay type: in vivo, human
Method: as §1

[4] = Within-participant escalating dose trial Part B: safety and tolerability (TEAEs); assay type: in vivo, human
[5] = Within-participant escalating dose trial Part B (20-120 mg titration): pharmacokinetics; conditions: titrated dosing schedule
Method: A trial was conducted to study the safety, tolerability, pharmacokinetics and pharmacodynamics of the compound of formula (I) in healthy participants. Each participant completed 3 study periods: Screening, Treatment period (12 or 31 days), and Safety follow-up.
In Part B, a randomized controlled trial was conducted. […] Patients were allowed to receive the compound of formula (I) daily at each of 60 mg, 80 mg, and 100 mg dose levels for an extended period of up to 2 days.
Patients were discharged on D33 after all study assessments were completed and scheduled for Safety Follow-up on Day 36 (±1 day) via telephone call. Pharmacokinetics of the compound of formula (I) was evaluated by performing LC/MS quantification of levels of the compound in plasma and urine. […] Phamacokinetic parameters determined for the compound of formula (I) include, but are not limited to, AUCt, AUCinf, AUCtau, Cmax, tmax, t1/2, CL/F and Vd/F.

essential tremor = conditions: cited from earlier work; for Efficacy for treating essential tremors in clinical trials: adverse effects led to patient discontinuance
[6] = cited from earlier work
[7] = 28-day essential tremor study (WO 2020/072773)

CC(C)(C)NC(=O)CN1CCC(CNC(=O)c2cc(F)cc(Cl)c2)CC1 [compound of formula (I), N-((1-(2-(tert-butylamino)-2-oxoethyl)piperidin-4-yl)methyl)-3-chloro-5-fluorobenzamide]
Tolerability [1]: not tolerated | Time the compound remained quantifiable in plasma ([2]; 5 mg dose, 24 hour sampling period): ≥ 24 h | Time by which plasma concentrations were quantifiable ([2]; single 5 mg dose, healthy volunteers): ≤ 0.50 h | Participants with at least one TEAE ([3]; 5 mg (N = 8)): 5 (62.5%) n (%) | TEAE: Dry eye ([3]; 5 mg (N = 8)): 1 (12.5%) n (%) | TEAE: Eye disorders ([3]; 5 mg (N = 8)): 2 (25.0%) n (%) | TEAE: General Disorders and Administration Site Conditions ([3]; 5 mg (N = 8)): 3 (37.5%) n (%) | TEAE: Headache ([3]; 5 mg (N = 8)): 2 (25.0%) n (%) | TEAE: Lethargy ([3]; 5 mg (N = 8)): 1 (12.5%) n (%) | TEAE: Medical device site dermatitis ([3]; 5 mg (N = 8)): 1 (12.5%) n (%) | TEAE: Nervous System Disorders ([3]; 5 mg (N = 8)): 2 (25.0%) n (%) | TEAE: Vessel puncture site thrombosis ([3]; 5 mg (N = 8)): 1 (12.5%) n (%) | Participants with at least one TEAE ([3]; 10 mg (N = 8)): 5 (62.5%) n (%) | TEAE: Dry eye ([3]; 10 mg (N = 8)): 2 (25.0%) n (%) | TEAE: Eye disorders ([3]; 10 mg (N = 8)): 2 (25.0%) n (%) | TEAE: General Disorders and Administration Site Conditions ([3]; 10 mg (N = 8)): 3 (37.5%) n (%) | TEAE: Headache ([3]; 10 mg (N = 8)): 0 n (%) | TEAE: Lethargy ([3]; 10 mg (N = 8)): 0 n (%) | TEAE: Medical device site dermatitis ([3]; 10 mg (N = 8)): 2 (25.0%) n (%) | TEAE: Nervous System Disorders ([3]; 10 mg (N = 8)): 0 n (%) | TEAE: Vessel puncture site thrombosis ([3]; 10 mg (N = 8)): 1 (12.5%) n (%) | Participants with at least one TEAE ([3]; 20 mg (N = 8)): 3 (37.5%) n (%) | TEAE: Dry eye ([3]; 20 mg (N = 8)): 0 n (%) | TEAE: Eye disorders ([3]; 20 mg (N = 8)): 0 n (%) | TEAE: General Disorders and Administration Site Conditions ([3]; 20 mg (N = 8)): 1 (12.5%) n (%) | TEAE: Headache ([3]; 20 mg (N = 8)): 1 (12.5%) n (%) | TEAE: Medical device site dermatitis ([3]; 20 mg (N = 8)): 0 n (%) | TEAE: Nervous System Disorders ([3]; 20 mg (N = 8)): 1 (12.5%) n (%) | TEAE: Vessel puncture site thrombosis ([3]; 20 mg (N = 8)): 0 n (%) | Participants with at least one TEAE ([3]; Overall (N = 8)): 7 (87.5%) n (%) | TEAE: Dry eye ([3]; Overall (N = 8)): 3 (37.5%) n (%) | TEAE: Eye disorders ([3]; Overall (N = 8)): 3 (37.5%) n (%) | TEAE: Headache ([3]; Overall (N = 8)): 3 (37.5%) n (%) | TEAE: Lethargy ([3]; Overall (N = 8)): 2 (25.0%) n (%) | TEAE: Medical device site dermatitis ([3]; Overall (N = 8)): 3 (37.5%) n (%) | TEAE: Nervous System Disorders ([3]; Overall (N = 8)): 3 (37.5%) n (%) | TEAE: Vessel puncture site thrombosis ([3]; Overall (N = 8)): 2 (25.0%) n (%) | Participants with at least one TEAE ([4]; human, in vivo, 31 days): 12 (100%)^ n (%) | TEAE: Cardiac Disorders ([4]; human, in vivo, 31 days): 4 (33.3%) n (%) | TEAE: Chest discomfort ([4]; human, in vivo, 31 days): 2 (16.7%) n (%) | TEAE: Dizziness ([4]; human, in vivo, 31 days): 3 (25.0%) n (%) | TEAE: General Disorders and Administration Site Conditions ([4]; human, in vivo, 31 days): 6 (50.0%) n (%) | TEAE: Headache ([4]; human, in vivo, 31 days): 2 (16.7%) n (%) | TEAE: Intoxicated sensation ([4]; human, in vivo, 31 days): 2 (16.7%) n (%) | TEAE: Medical device site dermatitis ([4]; human, in vivo, 31 days): 3 (25.0%) n (%) | TEAE: Nervous System Disorders ([4]; human, in vivo, 31 days): 5 (41.7%) n (%) | TEAE: Palpitations ([4]; human, in vivo, 31 days): 2 (16.7%) n (%) | SAEs and severe AEs ([4]; in vivo): no SAEs and no severe AEs | Dose levels well-tolerated with a titrated dosing schedule ([4]; titration 20 to 120 mg per day, no maximum tolerated dosage identified): ≤ 120 mg per day | Increase of Cmax and AUC24 above values of a lower dosage not tolerated without titration [5]: 2-3 fold

NS(=O)(=O)Cc1noc2ccccc12 [zonisamide]
Efficacy for treating essential tremors in clinical trials (essential tremor): effective

CC1(C)O[C@@H]2[C@@H](CO[C@@]3(COS(N)(=O)=O)OC(C)(C)O[C@@H]23)O1 [topiramate]
Efficacy for treating essential tremors in clinical trials (essential tremor): effective

CC(C)c1ccc(CC(=O)N[C@H](C)c2ccc(OCC(F)(F)F)cn2)cc1 [CX-8998]
Discontinuation due to intolerability of adverse events (essential tremor; [7]): 17% | Discontinuation rate (essential tremor; [7]): 23% | Titrated daily dose reached ([6]; Papapetropoulos et al. 2019, 2021): 20 mg | Highest non-titrated dose safely administered to patients ([6]; single doses, WO 2020/072773): 16 mg
